Experimental findings from US20220218679A1, “NOVEL COMPOUNDS AND PHARMACEUTICAL COMPOSITIONS THEREOF FOR THE TREATMENT OF INFLAMMATORY DISORDERS” (Galapagos NV, priority 2019, published 2022) are described below.

The test system of assay [1] is sclerodermatous cGvHD in BALB/c (H-2d) mice. Kind of assay: Murine sclerodermatous chronic graft-versus host disease (cGvHD). It counts as in vivo. The note with it: 10 mg/kg b.i.d., day 21 to day 56 post transplantation. From the text:
5.10. Murine Sclerodermatous Chronic Graft-Versus Host Disease (cGvHD)
In this cGvHD model, fibrosis is induced in BALB/c (H-2d) mice by allogeneic transplantation of bone marrow cells and splenocytes from B10.D2 (H-2d) donor mice (minor HLA mismatch). The recipient mice develop inflammation-driven dermal and pulmonary fibrosis resembling patients with rapidly progressive diffuse cutaneous systemic sclerosis. (Zerr et al., 2012)
The treatment is provided only after the onset of first clinical symptoms of sclerodermatous cGvHD. […]
The anti-fibrotic effects on skin were analysed by determination of dermal thickness, quantification of lesional collagen and staining for myofibroblasts.
In case of positive effects on skin fibrosis, effects on pulmonary fibrosis were analysed by Ashcroft scoring, by hydroxyproline content and by quantification of the collagen covered area using SirCol staining.
Based on individual animal raw data, the means for each group were determined and percent change from disease controls was calculated. Treatment groups were compared to disease controls using a one-way analysis of variance (1-way ANOVA) with a Dunnett's post-hoc analysis for measured (parametric) data or a Kruskal-Wallis test with a Dunn's post-hoc analysis for scored (non-parametric) data.

For assay [2], the system named is THP-1-Lucia NFκB cells. The experiment in a line: THP1-Lucia NFκB reporter assay (LPS, IL-1β, TNFα triggering). The assay is classed as cell-based. The note with it: for EC50: 24 h incubation. From the text:
This assay was used to evaluate the IRAK4 selectivity and potency of the compounds of the invention upon IRAK4 dependent (LPS and IL-1β) and independent triggering (TNFα), in a THP1-Lucia NFκB reporter assay.
THP-1-Lucia NFκB cells (Invivogen—5, rue Jean Rodier 31400 Toulouse France—cat #thp1-nfkb) were cultivated as recommended by the supplier using split cycles each cycle comprising a succession of thawing/expansion/seeding. The data reported were generated using cells having between 3 to 9 cycles. On the day of the experiment THP-1-Lucia NFκB cells were counted and seeded at a density of 1,000,000 cells/mL in culture medium (RPMI 1640 (Gibco, Cat #52400-025)+10% FBS (Sigma, Cat #F7524-500ML)+1% P/S (Gibco, Cat #15140-122)) by pipetting 54 μL/well in a 384 well plate. Thereafter, 6 μL of a 10× trigger solution was added to all wells, at final concentrations of 2.5, 10 and 3 ng/mL for respectively LPS, TNFα and IL-1β, except for ‘no trigger wells’ where 6 μL culture medium only was added.
After trigger addition, compounds were added with a digital compound dispenser, in a 8-points concentration range, using 3-fold dilution steps and normalizing the final DMSO concentration to 0.2% DMSO in all wells.
After 24 h incubation at 37° C., 5% CO2, 40 μL of supernatant was collected per well and transferred to a new 384 well plate that was then stored at −20° C. until further use.
For the readout, supernatant samples were thawed on ice and 5 μL sample was transferred from each well to a new 384-well plate. 20 μL of Quanti-Luc solution (Quanti-Luc powder (Invivogen, Cat #rep-qlc1) dissolved in 25 mL sterile water as indicated by the manufacturer) was added to each well after which luminescence was immediately measured on an Envision instrument.
To measure the inhibition of LPS/TNFα/IL-1β-induced NFκB-reporter activity, percentage inhibition (PIN) values were calculated for all concentrations tested, compared to controls. […]

SMILES strings stand for the structures. Read-outs that look alike come from different tables or passages of the source.

Consider `COc1cn2nc(CCC(C)(C)O)cc2cc1NC(=O)c1cccn(C2CC2)c1=O` [Compound 1, 1-cyclopropyl-N-[2-(3-hydroxy-3-methylbutyl)-6-methoxypyrazolo[1,5-a]pyridin-5-yl]-2-oxopyridine-3-carboxamide], for which, in assay [1], the “effect on Lung fibrosis (Ashcroft, SirCol)” value was “statistically significant effect” and the “effect on skin fibrosis (Hydroxyproline)” value is recorded as “statistically significant effect”. Moreover, the EC50 in assay [2] (IL-1β trigger 3 ng/mL, read-out: IL-1β driven NFκB-reporter activity, average pEC50 (converted)) is 100 nM. Also, the EC50 in assay [2] (LPS trigger 2.5 ng/mL, read-out: LPS driven NFκB-reporter activity, average pEC50 (converted)) is 100 nM. Besides, the “TNFα mediated NFκB-reporter activity” value in assay [2] (TNFα trigger 10 ng/mL, 24 h incubation (IRAK4 independent)) is recorded as “no activity was observed”.
